In US10131670B2, “Bicyclic heteroaryl derivatives as CFTR potentiators” (CYSTIC FIBROSIS FOUNDATION THERAPEUTICS, INC., priority 2016, dated 2018):
pEC50: −log10 of the molar value. Structures can show the parent of a compound that is named as a salt.

Tests used:
CFTR = CFTR (Homo sapiens, UniProt P13569); experiment: Ussing Chamber Electrophysiology Assay of CFTR Potentiation in CF Bronchial Epithelial Cells; type: cell-based; conditions: primary CF hBE cells, short-circuit current, scaled to DMSO (0%) and positive control potentiator (100%)
Excerpt: Ussing Chamber Electrophysiology Assay of CFTR Potentiation in CF Bronchial Epithelial Cells
Primary cystic fibrosis human bronchial epithelial (CF hBE) cells were expanded and cultured according to published methods (Neuberger et al., Ch. 4 of Cystic Fibrosis, Methods in Molecular Biology vol. 741, pp. 39-54 (2011)). Well-differentiated cells (>30 days at air/liquid interface) on Snapwell filters (Corning Costar, cat. no. 3801) were mounted in Ussing chambers (Physiologic Instruments, Inc., San Diego, Calif.). F508del/F508del cultures were assayed at 27° C. and G551D/F508del cells were assayed at 35° C. HEPES buffered physiological saline (composition (in mM): 137 NaCl, 4 KCl, 1 MgCl2, 1.8 CaCl2, 10 HEPES Na) was used in both apical and basolateral chambers. Chambers were bubbled with air to promote mixing and the voltage was clamped to zero. Amiloride (30 uM), forskolin (10 uM), test compound (4 increasing concentrations), and CFTRinh-172 (20 uM) were added sequentially with 20-25 minutes between additions. Short-circuit currents were acquired and analyzed using LabScribe2. Test compound responses were scaled relative to responses for DMSO (0%) and the maximal response of a positive control potentiator (100%).

F508del V470 CFTR = F508del V470 CFTR (Homo sapiens, UniProt P13569, DEL508-508); experiment: FRT Ion Flux Assay of F508del CFTR Potentiation; type: cell-based; conditions: FRT cells expressing F508del V470 CFTR and halide-sensitive YFP, forskolin 20 uM, 30 min
Sequence of F508del V470 CFTR (P13569 with tags, fused parts or gaps DEL508-508): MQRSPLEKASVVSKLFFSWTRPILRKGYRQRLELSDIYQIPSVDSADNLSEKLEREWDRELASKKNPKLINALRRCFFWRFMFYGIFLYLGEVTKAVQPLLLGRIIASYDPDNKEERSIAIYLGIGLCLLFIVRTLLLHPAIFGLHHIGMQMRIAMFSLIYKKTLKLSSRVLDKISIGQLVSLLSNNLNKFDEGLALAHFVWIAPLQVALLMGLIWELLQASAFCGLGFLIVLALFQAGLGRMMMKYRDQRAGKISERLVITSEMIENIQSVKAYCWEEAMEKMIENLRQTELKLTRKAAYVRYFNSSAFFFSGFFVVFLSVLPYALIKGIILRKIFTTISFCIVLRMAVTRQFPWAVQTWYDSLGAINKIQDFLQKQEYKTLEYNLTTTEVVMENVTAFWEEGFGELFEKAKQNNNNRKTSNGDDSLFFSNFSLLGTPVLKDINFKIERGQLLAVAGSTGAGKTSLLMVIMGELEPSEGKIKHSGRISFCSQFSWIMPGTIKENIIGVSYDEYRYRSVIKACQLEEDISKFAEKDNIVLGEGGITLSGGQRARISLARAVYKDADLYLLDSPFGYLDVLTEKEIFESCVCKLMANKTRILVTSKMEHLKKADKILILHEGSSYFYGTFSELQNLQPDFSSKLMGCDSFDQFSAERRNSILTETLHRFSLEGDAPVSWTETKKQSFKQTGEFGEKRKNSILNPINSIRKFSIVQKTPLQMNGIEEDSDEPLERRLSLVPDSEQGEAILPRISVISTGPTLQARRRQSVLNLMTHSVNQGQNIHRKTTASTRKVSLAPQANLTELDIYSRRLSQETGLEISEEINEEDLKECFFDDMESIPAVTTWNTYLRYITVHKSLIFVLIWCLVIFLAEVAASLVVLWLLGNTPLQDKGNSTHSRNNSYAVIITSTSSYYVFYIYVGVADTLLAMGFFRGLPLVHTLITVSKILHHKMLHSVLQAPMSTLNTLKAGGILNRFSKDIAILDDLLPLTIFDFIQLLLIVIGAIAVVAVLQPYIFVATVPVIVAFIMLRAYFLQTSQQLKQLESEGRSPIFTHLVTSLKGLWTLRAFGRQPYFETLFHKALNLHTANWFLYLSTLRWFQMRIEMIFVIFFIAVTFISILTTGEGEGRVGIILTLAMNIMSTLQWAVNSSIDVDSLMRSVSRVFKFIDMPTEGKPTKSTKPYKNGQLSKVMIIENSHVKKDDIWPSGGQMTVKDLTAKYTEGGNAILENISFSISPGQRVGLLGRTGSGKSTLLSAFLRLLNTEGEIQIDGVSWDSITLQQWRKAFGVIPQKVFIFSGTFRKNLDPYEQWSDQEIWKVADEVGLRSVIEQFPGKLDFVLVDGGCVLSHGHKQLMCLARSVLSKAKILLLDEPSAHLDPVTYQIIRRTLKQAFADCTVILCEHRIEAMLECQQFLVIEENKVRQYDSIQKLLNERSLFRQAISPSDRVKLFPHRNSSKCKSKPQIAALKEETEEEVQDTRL
Description: FRT Ion Flux Assay of F508del CFTR Potentiation
Fischer rat thyroid (FRT) cell lines stably expressing recombinant F508del V470 CFTR and halide-sensitive yellow fluorescent protein (Pedemonte et al., J. Clin. Invest. 115(9) 2564-71 (2005)) were seeded at 25,000 cells/well in 50 uL/well of culture medium into black-walled, clear bottom tissue-culture-treated 384-well plates (Corning, cat. no. 3712). After one day, the cells were pre-incubated at 27° C./5% CO2 for 16-24 hours. The cells were then washed with dPBS and treated with forskolin (20 uM) and test compound for 30 min by addition of 20 uL of compound dilution buffer (dPBS containing forskolin and test compound). Plates were loaded into FLIPR384 fluorescence imaging plate reader (Molecular Devices). After an initial fluorescence reading, iodide buffer (25 uL) (composition (in mM): 137 NaI, 1.5 K2PO4, 8.1 NaH2PO4, 2.7 KCl, 0.5 MgCl2, 1 CaCl2) was added and a second fluorescence reading was made after approximately 21 seconds. Data treatment involved division of the second fluorescence reading by the initial fluorescence reading, then scaling of the resulting normalized endpoint fluorescence with respect to the responses for DMSO (0%) and a positive control potentiator (100%).

pEC50 (CFTR) | pEC50 (F508del V470 CFTR) | SMILES
9.38 | 9.21 | CC(c1cnn(-c2ccccc2F)c1)c1c(C#N)c(-c2cnc(C(F)(F)F)nc2)c2c(N)ncnn12 (single isomer, unassigned) [Example 13, 4-amino-7-{1-[1-(2-fluorophenyl)-1H-pyrazol-4-yl]ethyl}-5-[2-(trifluoromethyl)pyrimidin-5-yl]pyrrolo[2,1-f][1,2,4]triazine-6-carbonitrile]
8.70 | 8.18 | CCC(c1cnn(-c2ccccc2F)c1)c1c(C#N)c(-c2cnc(C(F)(F)F)nc2)c2c(N)ncnn12 (single isomer, unassigned) [Example 14, 4-amino-7-{1-[1-(2-fluorophenyl)-1H-pyrazol-4-yl]propyl}-5-[2-(trifluoromethyl)pyrimidin-5-yl]pyrrolo[2,1-f][1,2,4]triazine-6-carbonitrile]
7.44 | 7.04 | CCC(c1cn(-c2ccccc2F)nn1)c1cc(-c2cnc(C(F)(F)F)nc2)c2c(N)ncnn12 (single isomer, unassigned) [Example 58, 7-{1-[1-(2-fluorophenyl)-1H-1,2,3-triazol-4-yl]propyl}-5-[2-(trifluoromethyl)pyrimidin-5-yl]pyrrolo[2,1-f][1,2,4]triazin-4-amine]
8.82 | 8.32 | CCC(c1cnn(-c2ccccc2F)c1)n1nc(-c2cnc(C(F)(F)F)nc2)c2c(N)ncnc21 (single isomer, unassigned) [Example 87, 1-{1-[1-(2-fluorophenyl)-1H-pyrazol-4-yl]propyl}-3-[2-(trifluoromethyl)pyrimidin-5-yl]-1H-pyrazolo[3,4-d]pyrimidin-4-amine]
8.98 | 9.39 | N#Cc1c(-c2cnc(C(F)F)nc2)c2c(N)ncnn2c1Cc1cnn(-c2ccccc2F)c1 [Example 31, 4-amino-5-[2-(difluoromethyl)pyrimidin-5-yl]-7-{[1-(2-fluorophenyl)-1H-pyrazol-4-yl]methyl}pyrrolo[2,1-f][1,2,4]triazine-6-carbonitrile]
7.32 | 7.02 | CCC(c1cnn(C(C)C)c1)c1c(C#N)c(-c2cnc(C(F)(F)F)nc2)c2c(N)ncnn12 (single isomer, unassigned) [Example 10, 4-amino-7-{1-[1-(propan-2-yl)-1H-pyrazol-4-yl]propyl}-5-[2-(trifluoromethyl)pyrimidin-5-yl]pyrrolo[2,1-f][1,2,4]triazine-6-carbonitrile]
7.84 | 7.97 | CC(c1cn(-c2ccc(F)cc2F)nn1)c1c(C#N)c(-c2cnc(C(F)(F)F)nc2)c2c(N)ncnn12 (single isomer, unassigned) [Example 3, 4-amino-7-{1-[1-(2,4-difluorophenyl)-1H-1,2,3-triazol-4-yl]ethyl}-5-[2-(trifluoromethyl)pyrimidin-5-yl]pyrrolo[2,1-f][1,2,4]triazine-6-carbonitrile]
6.94 | 7.26 | Nc1ncnn2c(Cc3cn(-c4ccccc4F)nn3)nc(-c3ccc(Cl)cc3)c12 [Example 93, 5-(4-Chlorophenyl)-7-{[1-(2-fluorophenyl)-1H-1,2,3-triazol-4-yl]methyl}imidazo[5,1-f][1,2,4]triazin-4-amine trifluoroacetate]
8.30 | 7.86 | CC(c1cc(-c2ccccc2F)no1)c1c(C#N)c(-c2cnc(C(F)(F)F)nc2)c2c(N)ncnn12 (single isomer, unassigned) [Example 19, 4-amino-7-{1-[3-(2-fluorophenyl)-1,2-oxazol-5-yl]ethyl}-5-[2-(trifluoromethyl)pyrimidin-5-yl]pyrrolo[2,1-f][1,2,4]triazine-6-carbonitrile]
7.29 | 7.33 | CC(c1cn(-c2ccccc2F)nn1)c1c(C#N)c(-c2cnc(C(F)(F)F)nc2)c2c(N)ncnn12 (single isomer, unassigned) [Example 1, 4-amino-7-{1-[1-(2-fluorophenyl)-1H-1,2,3-triazol-4-yl]ethyl}-5-[2-(trifluoromethyl)pyrimidin-5-yl]pyrrolo[2,1-f][1,2,4]triazine-6-carbonitrile]
6.83 | 7.30 | CC(O)(c1cn(-c2ccccc2F)nn1)c1cc(-c2cnc(C(F)(F)F)nc2)c2c(N)ncnn12 (single isomer, unassigned) [Example 67, 1-{4-amino-5-[2-(trifluoromethyl)pyrimidin-5-yl]pyrrolo[2,1-f][1,2,4]triazin-7-yl}-1-[1-(2-fluorophenyl)-1H-1,2,3-triazol-4-yl]ethanol]
6.72 | 6.66 | CCC(c1cn(-c2ccccc2F)nn1)n1nc(-c2cnc(C(F)(F)F)nc2)c2c(N)ncnc21 (single isomer, unassigned) [Example 89, 1-{1-[1-(2-fluorophenyl)-1H-1,2,3-triazol-4-yl]propyl}-3-[2-(trifluoromethyl)pyrimidin-5-yl]-1H-pyrazolo[3,4-d]pyrimidin-4-amine]
9.07 | 9.24 | N#Cc1c(-c2cnc(C(F)(F)F)nc2)c2c(N)ncnn2c1Cc1cnn(-c2ccccc2F)c1 [Example 30, 4-amino-7-{[1-(2-fluorophenyl)-1H-pyrazol-4-yl]methyl}-5-[2-(trifluoromethyl)pyrimidin-5-yl]pyrrolo[2,1-f][1,2,4]triazine-6-carbonitrile]
9.18 | 8.50 | CC(c1cnn(-c2ccc(F)cc2F)c1)c1c(C#N)c(-c2cnc(C(F)(F)F)nc2)c2c(N)ncnn12 (single isomer, unassigned) [Example 21]
7.89 | 7.76 | CCC(c1cn(-c2cc(F)ccc2F)nn1)c1c(C#N)c(-c2cnc(C(F)(F)F)nc2)c2c(N)ncnn12 (single isomer, unassigned) [Example 8, 4-amino-7-{1-[1-(2,5-difluorophenyl)-1H-1,2,3-triazol-4-yl]propyl}-5-[2-(trifluoromethyl)pyrimidin-5-yl]pyrrolo[2,1-f][1,2,4]triazine-6-carbonitrile]
8.40 | 7.90 | CC(c1cnn(-c2ccccc2F)c1)c1c(C#N)c(-c2cnc(C(F)(F)F)nc2)c2c(N)ncnn12 (single isomer, unassigned) [Example 12, 4-amino-7-{1-[1-(2-fluorophenyl)-1H-pyrazol-4-yl]ethyl}-5-[2-(trifluoromethyl)pyrimidin-5-yl]pyrrolo[2,1-f][1,2,4]triazine-6-carbonitrile]
7.13 | 6.60 | CCC(c1cn(-c2cc(F)ccc2F)nn1)c1cc(-c2cnc(C(F)(F)F)nc2)c2c(N)ncnn12 (single isomer, unassigned) [Example 61, 7-{1-[1-(2,5-difluorophenyl)-1H-1,2,3-triazol-4-yl]propyl}-5-[2-(trifluoromethyl)pyrimidin-5-yl]pyrrolo[2,1-f][1,2,4]triazin-4-amine]
8.05 | 7.52 | CC(c1cnn(-c2ccc(F)cc2F)c1)c1c(C#N)c(-c2cnc(C(F)(F)F)nc2)c2c(N)ncnn12 (single isomer, unassigned) [Example 20, 4-amino-7-{1-[1-(2,4-difluorophenyl)-1H-pyrazol-4-yl]ethyl}-5-[2-(trifluoromethyl)pyrimidin-5-yl]pyrrolo[2,1-f][1,2,4]triazine-6-carbonitrile]
7.98 | 7.86 | CCC(c1cn(-c2ccccc2F)nn1)c1cc(-c2cncnc2OC)c2c(N)ncnn12 (single isomer, unassigned) [Example 65, 7-{1-[1-(2-fluorophenyl)-1H-1,2,3-triazol-4-yl]propyl}-5-(4-methoxypyrimidin-5-yl)pyrrolo[2,1-f][1,2,4]triazin-4-amine]
8.19 | 8.13 | CC(c1cn(-c2ccccc2F)nn1)c1cc(-c2cnc(C(F)(F)F)nc2)c2c(N)ncnn12 (single isomer, unassigned) [Example 54, 7-{1-[1-(2-fluorophenyl)-1H-1,2,3-triazol-4-yl]ethyl}-5-[2-(trifluoromethyl)pyrimidin-5-yl]pyrrolo[2,1-f][1,2,4]triazin-4-amine]
7.55 | 7.38 | CCC(c1cn(-c2ccc(F)c(F)c2)nn1)c1c(C#N)c(-c2cnc(C(F)(F)F)nc2)c2c(N)ncnn12 (single isomer, unassigned) [Example 9, 4-amino-7-{1-[1-(3,4-difluorophenyl)-1H-1,2,3-triazol-4-yl]propyl}-5-[2-(trifluoromethyl)pyrimidin-5-yl]pyrrolo[2,1-f][1,2,4]triazine-6-carbonitrile]
